Source: patent publication US20230076515A1, “STIMULI THAT HYPERACTIVATE RESIDENT DENDRITIC CELLS FOR CANCER IMMUNOTHERAPY” (Children's Medical Center Corporation, priority 2019, published 2023)

Assays:
[1] = test system: T cells from skin draining lymph nodes; assay: In vivo OVA immunization and T cell re-stimulation; set-up: species or system mouse; settings: for antigen-specific tetramer+IFNγ+ T cell responses: 7 days post immunization with OVA, 7 days ex vivo re-stimulation with OVA-loaded BMDC
Protocol: Flow cytometry: After FcR blockade, 7 days BMDCs were resuspended in MACS buffer (PBS with 1% FCS and 2 mM EDTA), and stained with the following fluorescently conjugated antibodies (BioLegend): anti-CD11c (clone N418), anti-I-A/I-E (clone M5/114.15.2), anti-CD40 (clone 3/23), anti-CD80(16-10A1), anti-CD69 clone (H1.2F3), anti-H-2Kb (clone AF6-88.5). Single cell suspension from the tumor or draining inguinal lymph nodes, or skin inguinal adipose tissue were resuspended in MACS buffer (PBS with 1% FCS and 2 mM EDTA), and stained with the following fluorescently conjugated antibodies (BioLegend): anti-CD8α (clone 53-6.7), anti-CD4 (clone RM4-5), anti-CD44 (clone IM7), anti-CD62L (MEL-14), anti-CD3 (17A2), anti-CD103 (2E7), anti-CD69 clone (H1.2F3), anti-CD45 (A20 or 30F11). LIVE/DEAD™ Fixable Violet Dead Cell Stain Kit (Molecular probes) was used to determine the viability of cells, and cells were stained for 20 minutes in PBS at 4° C. Draining inguinal lymph nodes T cells were stained with OVA-peptide tetramers at room temperature for 1 h. PE-conjugated H2K(b) SIINFEKL (OVA 257-264; SEQ ID NO: 1) and APC conjugated I-A(b) AAHAEINEA (OVA 329-337; SEQ ID NO: 2) were used. I-A(b) and H2K(b) associated with CLIP peptides were used as isotype controls. Tetramers were purchased for NIH tetramer core facility. in some experiments, FITC anti-CD8.1 (clone Lyt-2.1 CD8-E1) purchased from accurate chemical was used with tetramers. To determine absolute number of cells, COUNTBRIGHT counting beads (Molecular probes) were used, following the manufacturer's protocol. Appropriate isotype controls were used as a staining control. Data were acquired on a BD FACS ARIA or BD Fortessa. Data were analyzed using FlowJo software.
Intracellular staining: For intracellular cytokine staining, cells were stimulated with 50 ng/ml phorbol 12-myristate 13-acetate (PMA) and 500 ng/ml ionomycin (Sigma-Aldrich) in the presence of GolgiStop (BD) and brefeldin A for 4-5 h. Cells were then washed twice with PBS, and stained with LIVE/DEAD™ Fixable violet or green Dead Cell Stain Kit (Molecular probes) in PBS for 20 min at 4° C. Cells were washed with MACS buffer, and stained for appropriate surface markers for 20 min at 4° C. After two washes, cells were fixed and permeabilized using BD Cytofix/Cytoperm kit for 20 min at 4° C., then washed with 1× perm wash buffer (BD) per manufacturer's protocol. Intracellular cytokine staining was performed in 1× perm buffer for 20-30 min at 4° C. with the following conjugated antibodies all purchased from BioLegend: anti-Ki67 (clone 16A8), anti-IFN-γ (clone XMG1.2), anti TNFα (clone MP6-XT22), anti-Gata3 (16E10A23), anti-IL4(11B11), anti-IL10 (clone JES5-16E3). Data were acquired on a BD FACS ARIA or BD Fortessa. Data were analyzed using FlowJo software.
In vivo immunization and T cell re-stimulation: Female C57BL/6J mice aged 8 weeks, were immunized subcutaneously (s.c.) on the left lower back with either 150 μg/mouse endotoxin-free OVA plus 10 μg/mouse LPS emulsified in incomplete Freund's adjuvant, or with 150 μg/mouse endotoxin-free OVA, plus 65 μg/mouse oxPAPC or PGPC, plus 10 μg/mouse LPS emulsified in incomplete Freund's adjuvant. In some experiments mice were injected s.c. with OVA alone or with LPS emulsified in Alum. 7 or 40 days after immunization, CD4^+ T cells and CD8^+ T cells were isolated from the draining lymph nodes of immunized mice by magnetic cell sorting with anti-CD4 beads or anti-CD8 beads and columns (Miltenyi Biotech). Enriched cells were then sorted as live CD45^+CD3^+CD4^+ cells or live CD45^+CD3^+CD8^+ using FACS ARIA. Purity post-sorting was >98%. Sorted cells were then seeded in 96-well plates at a concentration of 100.000 cells per well in the presence of 10-20×10^3 DC pulsed with serial dilutions of OVA, starting at 1 mg/ml. […]

OT-II naïve CD4+ T cells = assay: OT-II in vitro T-cell stimulation; type: cell-based, mouse; settings: OVA-loaded BMDCs co-cultured with OT-II T cells; ELISA
Protocol: OT-I and OT-II in vitro T-cell stimulation: Splenic CD8^+ and CD4^+ T cells were sorted from OT-I and OT-II mice by magnetic cell sorting with anti-CD8 beads or anti-CD4 beads respectively (Miltenyi Biotech). Sorted T cells were then seeded in 96-well plates at a concentration of 100.000 cells per well in the presence of either 20.000 or 10.000 DCs (5:1 or 10:1 ratio) that were pretreated with either LPS (activation stimuli) or LPS+PGPC (hyperactivation stimuli) or LPS+Alum (pyroptotic stimuli) and pulsed (or not) with OVA protein or SIINFEKL (SEQ ID NO: 1) peptide at 100 μg/ml for 2 hours. 5 days post culture, supernatants were collected and clarified by centrifugation for short-term storage at −20° C. and cytokine measurement by ELISA.
Intracellular staining: For intracellular cytokine staining, cells were stimulated with 50 ng/ml phorbol 12-myristate 13-acetate (PMA) and 500 ng/ml ionomycin (Sigma-Aldrich) in the presence of GolgiStop (BD) and brefeldin A for 4-5 h. Cells were then washed twice with PBS, and stained with LIVE/DEAD™ Fixable violet or green Dead Cell Stain Kit (Molecular probes) in PBS for 20 min at 4° C. Cells were washed with MACS buffer, and stained for appropriate surface markers for 20 min at 4° C. […] Data were analyzed using FlowJo software.

FLT3-DCs = assay: FLT3-DC stimulation, cytokine ELISA and LDH release; type: cell-based, mouse; settings: ELISA
Protocol: FIGS. 14A-B. Oxidized phospholipids induce hyperactive cDC1 and cDC2 cells that display a hypermigratory phenotype. (A) Wild-type or NLRP3^−/− or Casp1/11^−/− BMDCs generated using FLT3L were either left untreated (none) or treated with LPS alone, or Alum alone, or PGPC alone for 24 h, or BMDCs were primed for 3 h with LPS, then treated with indicated stimuli for 21 h. IL-1β and TNFα release was monitored by ELISA. The percentage of cell death was measured by LDH release in the cell supernatants. Means and SDs from three replicates are shown and data are representative of at least three independent experiments. (B) Wild-type BMDCs generated using FLT3L were sorted as cDC1 or cDC2 cells then treated with indicated stimuli as in A. IL-1β and TNFα release was monitored by ELISA. The percentage of cell death was measured by LDH release in the cell supernatants. Means and SDs from three independent experiments done in two different laboratories.
Virtually all studies assessing the state of cell-hyperactivation have focused on the ability of bone marrow derived DC (BMDCs), generated with the cytokine granulocyte-macrophage colony-stimulating factor (GM-CSF), to release IL-1β while retaining viability. […] To examine whether conventional DCs can achieve a hyperactivation state, we used BMDCs generated using the DC hematopoietin Fms-like tyrosine kinase 3 ligand (Flt3L). […]

BMDCs = assay: BMDC stimulation, cytokine ELISA and LDH release; type: cell-based, mouse; settings: LPS alone or LPS priming 3 h then stimuli 21 h, ELISA
Protocol: Cell culture: BMDCs were generated by differentiating bone marrow in IMDM (Gibco), 10% B16-GM-CSF derived supernatant, 2 μM 2-mercaptoethanol, 100 U/ml penicillin, 100 μg/ml streptomycin (Sigma-Aldrich) and 10% FBS. 6 day after culture, BMDCs were washed with PBS and re-plated in IMDM with 10% FBS at a concentration of 1×10^6 cells/ml in a final volume of 100 μl. CD11c^+ DC purity was assessed by flow cytometry using BD Fortessa and was routinely above 80%. Splenic DCs from mice injected with B16-FLT3 for 15 days, were purified as CD11c^+MHC^+ live cells, then plated at a concentration of 1×10^6 cells/ml in a final volume of 100 μl in complete IMDM. To induce hyperactive or pyroptotic BMDCs, DCs were primed with LPS (1 μg/ml) for 3 hours, then stimulated with OxPAPC or PGPC (100 μg/ml) or alum (100 μg/ml) for 21 h in complete IMDM. […]
LDH Assay and ELISAs: Fresh supernatants were clarified by centrifugation after BMDC stimulation, then assayed for LDH release assay using the Pierce LDH cytotoxicity colorimetric assay kit (Life Technologies) following the manufacturer's protocol. Measurements for absorbance readings were performed on a Tecan plate reader at wavelengths of 490 nm and 680 nm. […] ELISA for IL-1β, TNFα, IL-10, IL-12p70, IFNγ, IL-2, IL-13, IL-4 and IL-17 were performed using eBioscience Ready-SET-Go! […]

[2] = OVA immunization, 40 days post-immunization, ex vivo re-stimulation with OVA-loaded BMDCs

lipopolysaccharide [LPS]
antigen-specific tetramer+IFNγ+ T cell responses [1]: higher IFNγ effector function | T central memory cells (TCM) in dLN ([1]; 40 days post-immunization with OVA): less abundant | IFNγ production by re-stimulated T cells [1, 2]: producing IFNγ, IL-10, IL-4 and IL-13 | IL-10, IL-4 and IL-13 production by re-stimulated T cells [1, 2]: producing IFNγ, IL-10, IL-4 and IL-13 | release of IL-10 and IL-13 (TH2-associated cytokines) (OT-II naïve CD4+ T cells): large amounts of IL-10, and IL-13 | IL-1β release (FLT3-DCs): did not induce IL-1β release from DCs | IL-1β release (BMDCs): did not induce the release of IL-1β

CCCCCCCCCCCCCCCC(=O)OC[C@H](COP(=O)([O-])OCC[N+](C)(C)C)OC(=O)CCCC(=O)O [PGPC, [(2R)-2-(4-carboxybutanoyloxy)-3-hexadecanoyloxypropyl] 2-(trimethylazaniumyl)ethyl phosphate]
antigen-specific tetramer+IFNγ+ T cell responses [1]: highest frequency of tetramer+IFNγ+ responses | effector and memory T cell generation ([1]; OVA plus LPS plus lipid, in IFA): enhance the magnitude of effector and memory T cell generation
